Measurements as given in PubChem BioAssay (NCI).
Values joined by “and” are separate entries in the source; they are usually repeats but may differ in a detail not shown here. Equal entries are not always repeated.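 Following 48 hours of exposure in 96-well plates, responses at five concentrations were used to interpolate endpoints linearly. GI50 marks 50% less growth. TGI: concentration producing complete growth inhibition.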

How the values were obtained:
Assay in all cases: growth of human tumour cells (NCI), 48 h
ACHN renal = test system: ACHN renal
NCI-H522 lung = test system: NCI-H522 lung
SK-MEL-2 melanoma = test system: SK-MEL-2 melanoma
SF-295 CNS = test system: SF-295 CNS
TK-10 renal = test system: TK-10 renal
SN12C renal = test system: SN12C renal
SF-539 CNS = test system: SF-539 CNS
786-0 renal = test system: 786-0 renal
NCI/ADR-RES ovarian = test system: NCI/ADR-RES ovarian
PC-3 prostate = test system: PC-3 prostate

Structure (SMILES)	GI50 (ACHN renal)	TGI (ACHN renal)	GI50 (NCI-H522 lung)	TGI (NCI-H522 lung)	GI50 (SK-MEL-2 melanoma)	TGI (SK-MEL-2 melanoma)	GI50 (SF-295 CNS)	TGI (SF-295 CNS)	GI50 (TK-10 renal)	TGI (TK-10 renal)	GI50 (SN12C renal)	TGI (SN12C renal)	GI50 (SF-539 CNS)	TGI (SF-539 CNS)	GI50 (786-0 renal)	TGI (786-0 renal)	GI50 (NCI/ADR-RES ovarian)	TGI (NCI/ADR-RES ovarian)	GI50 (PC-3 prostate)	TGI (PC-3 prostate)
COc1ccc(Br)cc1NC(=O)Nc1cccc2c1ccn2Cc1ccnc(N)c1	5.51 µM and 4.91 µM	23.2 µM and > 10 µM	1.89 µM and 2.45 µM	4.35 µM and > 10 µM	2.78 µM and 3.82 µM	8.87 µM and > 10 µM	3.69 µM and 3.61 µM	17.6 µM and > 10 µM	5.33 µM and 7.07 µM	16.6 µM and > 10 µM	5.48 µM and 7.26 µM	30.8 µM and > 10 µM	3.34 µM and 2.38 µM	19.3 µM and > 10 µM	8.57 µM and 8.88 µM	27.5 µM and > 10 µM	6.08 µM and > 10 µM	60.3 µM and > 10 µM	4.52 µM and 4.5 µM	> 54.8 µM
C(=N\Nc1ncc(-c2cc3cc4c(cc3o2)OCO4)s1)/c1ccco1	1.85 µM	11.3 µM	0.625 µM	2.97 µM	3.11 µM	11.3 µM	2.78 µM	11.5 µM	3.38 µM	24.7 µM	2.97 µM	12.7 µM	1.58 µM	3.96 µM	1.97 µM	4.94 µM	2.21 µM	> 100 µM	1.79 µM	12.4 µM
Cn1ncc(Cl)c1-c1cc(C(=O)N[C@H](CN)Cc2cccc(F)c2)sc1Cl	2.57 µM and 2.76 µM	> 10 µM and 15.4 µM	1.41 µM and 6.34 µM	> 5.8 µM and 20.3 µM	1.98 µM and 4.65 µM	> 6.11 µM and 12.3 µM	0.255 µM and 0.486 µM	2.95 µM and 7.01 µM	0.531 µM and 1.73 µM	5.76 µM and 14.3 µM	1.86 µM and 2.04 µM	> 10 µM and 19.3 µM	0.313 µM and 0.325 µM	3.22 µM and 4.64 µM	0.0578 µM and 0.0899 µM	1.85 µM and 4.12 µM	3.28 µM and 9.52 µM	> 7.74 µM and 23.5 µM	0.32 µM and 0.554 µM	> 5.56 µM and 10.2 µM
Cc1ccc(CNc2ccc3nc(CCC4CCCCC4)[nH]c3c2)cc1	3.09 µM	9.65 µM	1.99 µM	5.13 µM	2.31 µM	5.5 µM	1.88 µM	3.92 µM	2.87 µM	10.4 µM	2.77 µM	11.4 µM	2.42 µM	6.06 µM	2.12 µM	4.93 µM	2.69 µM	9.51 µM	2.39 µM	8.61 µM
COc1ccccc1C#Cc1ccccc1C#Cc1ccc(OCCCCCCOc2ccccc2C#Cc2ccccc2C#Cc2ccccc2OC)cc1	> 100 µM	> 100 µM	> 100 µM	> 100 µM	> 100 µM	> 100 µM	> 100 µM	> 100 µM	> 100 µM	> 100 µM	> 100 µM	> 100 µM	> 100 µM	> 100 µM	> 100 µM	> 100 µM	> 100 µM	> 100 µM	> 100 µM	> 100 µM
O=c1cc(-c2ccc(F)cc2)[nH]c2ncccc12	–	> 100 µM	–	> 100 µM	–	> 100 µM	50 µM	> 100 µM	–	> 100 µM	–	> 100 µM	–	> 100 µM	44.3 µM	> 100 µM	–	> 100 µM	46.1 µM	> 100 µM
COc1cc2nc(N3CCCN(C)CC3)nc(NC3CCN(Cc4ccccc4)CC3)c2cc1OC	2.25 µM	5.13 µM	2.02 µM	4.22 µM	2.08 µM	4.25 µM	1.81 µM	3.46 µM	1.88 µM	4.02 µM	6.68 µM	25 µM	1.68 µM	3.33 µM	1.84 µM	5.2 µM	13.4 µM	34.8 µM	4.4 µM	20.1 µM
CN(C)CCNc1ccc2ncn3c4ccc(O)cc4c(=O)c1c23	–	4.6 µM	–	5.68 µM	–	13 µM	–	14 µM	–	21.8 µM	–	13.3 µM	–	14.7 µM	–	13.3 µM	–	18.9 µM	–	10.8 µM
Cc1ccc2c(C(C[N+](=O)[O-])c3ccccc3)c(-c3ccccc3)[nH]c2c1 (configuration not stated)	57.2 µM	> 95 µM	3.17 µM	> 95 µM	46.3 µM	> 95 µM	36.7 µM	> 95 µM	> 95 µM	> 95 µM	44.1 µM	> 95 µM	22.8 µM	> 95 µM	40.3 µM	> 95 µM	14.2 µM	> 95 µM	20.9 µM	> 95 µM
COC[C@H](NC(=O)c1cnc(C)s1)C(=O)N[C@@H](COC)C(=O)N[C@@H](Cc1ccccc1)C(=O)[C@@]1(C)CO1	34.8 µM	> 100 µM	12.8 µM	63 µM	28.7 µM	> 91.6 µM	20.1 µM	72.7 µM	27.3 µM	> 72.2 µM	37.6 µM	> 100 µM	27.7 µM	> 74.1 µM	50.1 µM	> 100 µM	> 100 µM	> 100 µM	50.1 µM	> 100 µM
Fc1cccc(COc2ccc(Nc3ncnc4onc(-c5ccccc5)c34)cc2)c1	3.38 µM	> 100 µM	0.138 µM	0.905 µM	0.426 µM	> 100 µM	0.405 µM	> 26.7 µM	1.21 µM	36.1 µM	0.347 µM	> 100 µM	0.185 µM	1.09 µM	0.691 µM	21.2 µM	3.02 µM	15.7 µM	0.262 µM	> 100 µM
Cc1c(CN2CCN(C(=O)[C@H](C)O)CC2)sc2c(N3CCOCC3)nc(-c3cnc(N)nc3)nc12	0.203 µM and 0.145 µM	–	0.22 µM and 0.156 µM	> 10 µM	0.513 µM and 0.198 µM	4.72 µM and 1.8 µM	0.131 µM and 0.0822 µM	1.72 µM and 0.529 µM	0.191 µM and 0.131 µM	3.51 µM and 0.825 µM	0.179 µM and 0.174 µM	> 100 µM	0.388 µM and 0.222 µM	2.27 µM and 0.875 µM	0.38 µM and 0.159 µM	4.72 µM and 1.11 µM	0.663 µM and 0.408 µM	> 30.2 µM	0.122 µM and 0.0753 µM	> 100 µM
CC1SC(c2ccccc2Cl)N(NC(=O)C(O)c2ccccc2)C1=O (configuration not stated)	55.8 µM	> 100 µM	54.4 µM	> 100 µM	> 100 µM	> 100 µM	32.4 µM	> 100 µM	31 µM	> 100 µM	> 100 µM	> 100 µM	> 100 µM	> 100 µM	> 100 µM	> 100 µM	66 µM	> 100 µM	45.6 µM	> 100 µM
